“And” between values parts separate entries of the source, which are not always exact repeats. Equal values may be shown once. Read-outs that look alike come from different tables or passages of the source.
Key:
[1] = test system: dopamine neurons in the VTA; details: rat, in vivo; cited from earlier work
[2] = target: T1, α4β3γ2 GABAA/BzR (Homo sapiens, UniProt P18507+P48169); test: biochemical; type: binding
T1 construct: expressed in transfected cells; host or cells: LTK cells (given for XLi-093 only)

[3] = test system: Bz BS of GABA(A) receptors; details: cited from earlier work
[4] = target: T2, α3β3γ2 GABAA/BzR (Homo sapiens, UniProt P18507+P34903); test: Competition binding to HEK cell membranes, α3β3γ2; design: expressed in transfected cells
[5] = target: T3, α5β3γ2 GABAA/BzR (Homo sapiens, UniProt P18507+P31644); test: Competition binding to HEK cell membranes, α5β3γ2; design: expressed in transfected cells
[6] = target: T4, α6β3γ2 GABAA/BzR (Homo sapiens, UniProt P18507+Q16445); test: Competition binding to HEK cell membranes, α6β3γ2; design: expressed in transfected cells
[7] = target: T5, α1β3γ2 GABAA/BzR (Homo sapiens, UniProt P14867+P18507); design: expressed in transfected cells; host or cells: LTK cells (given for XLi-093 only); details: cited from earlier work
[8] = target: T3, α5β3γ2 GABAA/BzR; design: expressed in transfected cells; host or cells: LTK cells (given for XLi-093 only); details: cited from earlier work
[9] = target: T4, α6β3γ2 GABAA/BzR; design: expressed in transfected cells; host or cells: LTK cells (given for XLi-093 only); details: cited from earlier work
[10] = target: T1, α4β3γ2 GABAA/BzR; details: cited from earlier work
[11] = target: T5, α1β3γ2 GABAA/BzR; test: Competition binding to HEK cell membranes, α1β3γ2; design: expressed in transfected cells
[12] = target: T6, α2β3γ2 GABAA/BzR (Homo sapiens, UniProt P18507+P47869); test: Competition binding to HEK cell membranes, α2β3γ2; design: expressed in transfected cells
[13] = target: T6, α2β3γ2 GABAA/BzR; design: expressed in transfected cells; host or cells: LTK cells (given for XLi-093 only); details: cited from earlier work
[14] = target: T2, α3β3γ2 GABAA/BzR; design: expressed in transfected cells; host or cells: LTK cells (given for XLi-093 only); details: cited from earlier work
[15] = test system: human airway smooth muscle cells; details: 200 μM; cited from earlier work
[16] = Figure 33, αxβ3γ2, read-out: Affinity Ki α1
[17] = Figure 33, αxβ3γ2, read-out: Affinity Ki α5
[18] = Figure 33, αxβ3γ2, read-out: Affinity Ki α6
[19] = Figure 33, αxβ3γ2, read-out: Affinity Ki α4
[20] = Figure 33, αxβ3γ2, read-out: Affinity Ki α2
[21] = Figure 33, αxβ3γ2, read-out: Affinity Ki α3

SMILES | Ki [2] [nM] | Ki ([4]; Ki α3) | Ki ([5]; Ki α5) | Ki ([6]; Ki α6) | Ki [7, 16] [nM] | Ki [8, 17] [nM] | Ki [9, 18] [nM] | Ki ([11]; Ki α1) | Ki ([12]; Ki α2) | further results
NC1=N[C@H](O)[C@H]2[C@H]3O[C@]4(O)O[C@@H]([C@@H](O)[C@@]2(N1)[C@@H]4O)[C@]3(O)CO [TTX, Tetrodotoxin, reference compound] |  |  |  |  |  |  |  |  |  | cells/track after infusion in the ventral HPC of haloperidol-treated rats [1]: reversed the haloperidol-induced reduction in cells/track in SAL, but not MAM
C#Cc1ccc2[nH]c3cnc(C(=O)OC(C)(C)C)cc3c2c1 [WY-A-99-2 (WYS8)] | 2000 | 1.63 nM | 208 nM and 51 nM | 1980 nM | 0.972 | 1470 | 1980 |  |  | pharmacological properties compared with classical benzodiazepine receptor antagonists [3]: near GABA neutral antagonists
CC(C)(C)OC(=O)c1cc2c(cn1)[nH]c1ccc(C#C[Si](C)(C)C)cc12 [WY-B-14 (WYS7)] | 2000 | 36 nM and 245 nM |  | 1000 nM and 5000 nM | 6.8 | 108 | 1000 | 6.84 nM and 8.5 nM | 30 nM and 165 nM | Ki [10, 19]: 2000 nM; Ki [13, 20]: 30 nM; Ki [14, 21]: 36 nM
O=C(OCC(F)(F)F)c1cc2c(cn1)[nH]c1ccc(I)cc12 [WY-B-20] | 2000 | 47 nM | 122 nM | 3000 nM | 12 | 122 | 3000 | 12 nM | 39 nM | Ki [10, 19]: 2000 nM; Ki [13, 20]: 39 nM; Ki [14, 21]: 47 nM
O=C(OCC(F)(F)F)c1cc2c(cn1)[nH]c1ccc(-c3cccs3)cc12 [WY-B-27-2] |  |  |  |  |  |  |  |  |  | Ki ([2]; read-out: Ki α4): 2000 nM; Ki ([10]; read-out: Affinity Ki α4): 2000 nM; Ki ([11]; read-out: Ki α1): 9.19 nM; Ki ([12]; read-out: Ki α2): 111 nM; Ki ([4]; read-out: Ki α3): 72 nM; Ki ([5]; read-out: Ki α5): 449 nM; Ki ([6]; read-out: Ki α6): 2000 nM; Ki ([7]; read-out: Affinity Ki α1): 9.2 nM; Ki ([13]; read-out: Affinity Ki α2): 13 nM; Ki ([14]; read-out: Affinity Ki α3): 72 nM; Ki ([8]; read-out: Affinity Ki α5): 449 nM; Ki ([9]; read-out: Affinity Ki α6): 2000 nM
CCOC(=O)c1cc2c(cn1)[nH]c1ccc(C#C[Si](C)(C)C)cc12 [WY-B-99-1] | 2000 | 5.58 nM | 47 nM | 2000 nM | 4.4 | 47 | 2000 | 4.4 nM | 4.5 nM | Ki [10, 19]: 2000 nM; Ki ([11]; read-out: Ki α1): 4.4 nM; Ki ([12]; read-out: Ki α2): 4.5 nM; Ki ([4]; read-out: Ki α3): 5.58 nM; Ki ([5]; read-out: Ki α5): 47 nM; Ki [13, 20]: 4.5 nM; Ki [14, 21]: 5.58 nM
CCOC(=O)c1ncc2[nH]c3ccc(OCc4ccccc4)cc3c2c1COC [ZK 93423, 6-(benzyloxy)-4-(methoxymethyl)-β-carboline-3-carboxylic acid ethyl ester, reference compound] |  | 6 nM | 4.5 nM | 1000 nM |  |  |  | 4.1 nM | 4.2 nM | modulation ([3]; Supplement Table 1): agonist
CN1CCc2cccc3c2[C@H]1Cc1ccc(O)c(O)c1-3 [apomorphine, reference compound] |  |  |  |  |  |  |  |  |  | number of active dopamine neurons, MAM rats withdrawn from repeated HAL [1]: no effect; number of spontaneously active dopamine neurons, SAL rats withdrawn from repeated HAL [1]: increased
C#CC#Cc1ccc2c(c1)C(=O)N1CCC[C@H]1c1c(C(=O)OCC)ncn1-2 [compound 8] |  |  |  |  |  |  |  |  |  | Ki ([10]; Figure 4, read-out: Ki α4): > 1000 nM; Ki ([7]; Figure 4, read-out: Ki α1): > 1000 nM; Ki ([13]; Figure 4, read-out: Ki α2): > 1000 nM; Ki ([14]; Figure 4, read-out: Ki α3): > 1000 nM; Ki ([8]; Figure 4, read-out: Ki α5): 64 nM; Ki ([9]; Figure 4, read-out: Ki α6): > 1000 nM
COc1ccc(-c2ccc(=N)n(CCCC(=O)O)n2)cc1 [gabazine, reference compound] |  |  |  |  |  |  |  |  |  | effect on the attenuation by SH-053-2′F-R-CH3 of the calcium increase [15]: significantly blocked
O=C(CCCN1CCC(O)(c2ccc(Cl)cc2)CC1)c1ccc(F)cc1 [haloperidol, reference compound] |  |  |  |  |  |  |  |  |  | number of spontaneously active dopamine neurons after repeated treatment, SAL and MAM rats [1]: reduction

— publication PMC4657098, “A Review of the Updated Pharmacophore for the Alpha 5 GABA(A) Benzodiazepine Receptor Model” (International Journal of Medicinal Chemistry, 2015)
